# What was measured:
# E. hirae [1] = assay: Determination of sugar: colour change on medium with indicator dye; format: cell-based, Enterococcus hirae; conditions: sugar in medium with bromocresol purple indicator dye
# Source text: (§1) To detect the consumption of sugar by bacteria, the inventors added to the medium of the present invention an indicator dye whose colour will vary according to the pH of the medium. Indeed, when the bacteria consume sugar, there is an acidification of the medium, which leads to a change in the indicator dye. To determine the most appropriate indicator dyer, the inventors tested several, including the following three: phenol red, bromocresol green and bromocresol purple. Based on concentrations in media already containing one of these indicator dyes, the inventors first chose to test a concentration of 25 mg/L [12] for each of the chosen indicators.
# (§2) Once the indicator dye was chosen, the inventors were able to determine which sugar was most suitable for the present invention.
# (§3) Finally, the last sugar tested was mannitol. […] The inventors therefore chose mannitol as sugar for the formulation of said invention, at a concentration of 10 g/L, a concentration frequently found in culture media.
# E. faecalis [2] = assay: as above; format: cell-based, Enterococcus faecalis; conditions: sugar in medium with bromocresol purple indicator dye
# Source text: as §1, §2, §3
# E. faecium [3] = assay: as above; format: cell-based, Enterococcus faecium; conditions: sugar in medium with bromocresol purple indicator dye
# Source text: as §1, §2
# This sugar cannot therefore be used to isolate E. hirae.
# as §3
# Enterococcus faecium = tested on: Enterococcus faecium; parameters: key: Variable refers to the fact that consumption of this sugar by E. faecium is strain dependent; conditions: Table 1, literature data; cited from earlier work
# [4] = Dilution of nalidixic acid in water; format: physicochemical
# Description: In addition, the concentration of nalidixic acid was reduced from 250 mg/L to no more than 100 mg/L due to its poor dilution in water above 100 mg/L and colistin, a polypeptide antibiotic of the polymyxin family with action on Gram-negative bacteria, was added at a concentration of 25 mg/L to compensate.
# E. hirae [5] = assay: Growth on media with different salt concentrations; format: cell-based, Enterococcus hirae
# Description: (§4) Since enterococci are resistant to high salt concentrations, in order to eliminate some Gram-positive bacteria other than enterococci and Gram-negative bacteria resistant to the inhibitors mentioned above, different concentrations of salt (sodium chloride) were tested to find the most appropriate one to add to the formulation of the present invention. Four concentrations were tested (60 g/L, 65 g/L, 70 g/L and 75 g/L).
# E. faecium [6] = assay: Growth on media with different salt concentrations; format: cell-based, Enterococcus faecium; conditions: 60 g/L, 65 g/L, 70 g/L and 75 g/L salt
# Description: as §4
# E. faecalis [7] = assay: Growth on media with different salt concentrations; format: cell-based, Enterococcus faecalis; conditions: 60 g/L, 65 g/L, 70 g/L and 75 g/L salt
# Description: as §4
compound,measurement,setting,value
"OC[C@@H](O)[C@@H](O)[C@H](O)[C@H](O)CO [Mannitol, mannitol]",Colour change of E. hirae colonies,E. hirae [1],remained colourless
same,Colour change of E. faecalis colonies,E. faecalis [2],change in the colour of the medium and the colonies
same,Colour change of E. faecium colonies,E. faecium [3],change in the colour of the medium and the colonies
"OC[C@H]1O[C@H](OCC2O[C@@H](O)[C@H](O)[C@@H](O)[C@@H]2O)[C@H](O)[C@@H](O)[C@H]1O (stereo partly drawn) [Melibiose, melibiose]",Colour change of E. faecium colonies,E. faecium [3],variable results
same,Sugar consumption by Enterococcus faecium,Enterococcus faecium,V
"OC[C@H]1O[C@H](OC[C@H]2O[C@H](O[C@]3(CO)O[C@H](CO)[C@@H](O)[C@@H]3O)[C@H](O)[C@@H](O)[C@@H]2O)[C@H](O)[C@@H](O)[C@H]1O [Raffinose, raffinose]",Colour change of E. faecalis colonies,E. faecalis [2],no colour change
same,Colour change of E. faecium colonies,E. faecium [3],no colour change
CCn1cc(C(=O)O)c(=O)c2ccc(C)nc21 [nalidixic acid],Dilution in water (poor above this concentration),[4],no more than 100 mg/L
[Cl-].[Na+] [sodium chloride],Growth of E. hirae,"E. hirae [5]; 60 g/L, 65 g/L, 70 g/L and 75 g/L salt",had growth for each of the concentrations tested
same,Size of E. hirae colonies,"E. hirae [5]; reading the agars at 24 hours, 60 to 75 g/L salt","the higher the salt concentrations, the smaller the colonies"
same,Growth of E. faecium,E. faecium [6],had growth for each of the concentrations tested
same,Growth of E. faecalis,E. faecalis [7],had growth for each of the concentrations tested

# Reference: patent publication US20210139943A1, “MEDIUM AND PROCESS FOR THE CULTURE AND SELECTIVE ISOLATION OF THE BACTERIUM ENTEROCOCCUS HIRAE” (FONDATION MEDITERRANEE INFECTION, priority 2017, published 2021)
